Test results as given in patent US12612409B2, “Pyrrolopyrimidines as CFTR potentiators” (Cystic Fibrosis Foundation, priority 2016, dated 2026).

What was measured:
[1] = molecular target: T1, CFTR in G551D/F508del primary CF hBE cells (Homo sapiens, UniProt P13569, G551D); experiment: Ussing chamber electrophysiology assay of CFTR potentiation in G551D/F508del CF bronchial epithelial cells (35° C.); assay type: cell-based; settings: G551 D/F508del Ussing chamber assay at 35 degrees Celsius
T1 construct: Primary cystic fibrosis human bronchial epithelial (CF hBE) cells were expanded and cultured; endogenous in cells; host or cells: primary CF human bronchial epithelial cells, genotype G551D/F508del
Excerpt: • SHELXTL, Version 5.1, Bruker AXS, 1997. • PLATON, A. L. Spek, J. Appl. Cryst. 2003, 36, 7-13. • MERCURY, C. F. Macrae, P. R. Edington, P. McCabe, E. Pidcock, G. P. Shields, R. Taylor, M. Towler and J. van de Streek, J. Appl. Cryst. 39, 453-457, 2006. • OLEX2, Dolomanov, O. V.; Bourhis, L. J.; Gildea, R. J.; Howard, J. A. K.; Puschmann, H., (2009). J. Appl. Cryst., 42, 339-341. • R. W. W. Hooft et al. J. Appl. Cryst. (2008). 41. 96-103. • H. D. Flack, Acta Cryst. 1983, A39, 867-881. Using Chamber Electrophysiology Assay of CFTR Potentiation in CF Bronchial Epithelial Cells
Primary cystic fibrosis human bronchial epithelial (CF hBE) cells were expanded and cultured according to published methods (Neuberger et al., Ch. 4 of Cystic Fibrosis, Methods in Molecular Biology vol. 741, pp. 39-54 (2011)). Well-differentiated cells (>30 days at air/liquid interface) on Snapwell filters (Corning Costar, cat. no. 3801) were mounted in Ussing chambers (Physiologic Instruments, Inc., San Diego, CA). […] HEPES buffered physiological saline (composition (in mM): 137 NaCl, 4 KCl, 1 MgCl2, 1.8 CaCl2), 10 HEPES Na) was used in both apical and basolateral chambers. Chambers were bubbled with air to promote mixing and the voltage was clamped to zero. Amiloride (30 uM), forskolin (10 uM), test compound (4 increasing concentrations), and CFTRinh-172 (20 uM) were added sequentially with 20-25 minutes between additions. Short-circuit currents were acquired and analyzed using LabScribe2. Test compound responses were scaled relative to responses for DMSO (0%) and the maximal response of a positive control potentiator (100%).

[2] = molecular target: T2, CFTR in F508del/F508del primary CF hBE cells (Homo sapiens, UniProt P13569, DEL508-508); experiment: Ussing chamber electrophysiology assay of CFTR potentiation in F508del/F508del CF bronchial epithelial cells (27° C.); assay type: cell-based
T2 construct: Primary cystic fibrosis human bronchial epithelial (CF hBE) cells were expanded and cultured; endogenous in cells; host or cells: primary CF human bronchial epithelial cells, genotype F508del/F508del
In short: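 Short-circuit current was recorded under zero-voltage clamp across primary CF bronchial epithelia cultured >30 days at air/liquid interface, bathed apically and basolaterally in HEPES-buffered saline. Sequential additions: amiloride (30 uM), forskolin (10 uM), compound at 4 increasing levels, CFTRinh-172 (20 uM). Responses normalised between DMSO (0%) and maximal positive-control potentiator (100%).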

[3] = molecular target: T3, recombinant F508del V470 CFTR in Fischer rat thyroid (FRT) cells (Homo sapiens, UniProt P13569, DEL508-508); experiment: FRT ion flux assay of F508del CFTR potentiation; assay type: cell-based; settings: FRT cells expressing F508del V470 CFTR, forskolin 20 uM, 27° C. pre-incubation
T3 construct: expressed in transfected cells
In short: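 Potentiation read as YFP quench ~21 s after iodide buffer addition, as second/initial fluorescence ratio normalised between DMSO (0%) and reference potentiator (100%).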

G551 D patients = settings: cited from earlier work
[4] = tested on: F508del homozygote patients; settings: cited from earlier work

T1 sequence (P13569 whole entry F508del/G551D): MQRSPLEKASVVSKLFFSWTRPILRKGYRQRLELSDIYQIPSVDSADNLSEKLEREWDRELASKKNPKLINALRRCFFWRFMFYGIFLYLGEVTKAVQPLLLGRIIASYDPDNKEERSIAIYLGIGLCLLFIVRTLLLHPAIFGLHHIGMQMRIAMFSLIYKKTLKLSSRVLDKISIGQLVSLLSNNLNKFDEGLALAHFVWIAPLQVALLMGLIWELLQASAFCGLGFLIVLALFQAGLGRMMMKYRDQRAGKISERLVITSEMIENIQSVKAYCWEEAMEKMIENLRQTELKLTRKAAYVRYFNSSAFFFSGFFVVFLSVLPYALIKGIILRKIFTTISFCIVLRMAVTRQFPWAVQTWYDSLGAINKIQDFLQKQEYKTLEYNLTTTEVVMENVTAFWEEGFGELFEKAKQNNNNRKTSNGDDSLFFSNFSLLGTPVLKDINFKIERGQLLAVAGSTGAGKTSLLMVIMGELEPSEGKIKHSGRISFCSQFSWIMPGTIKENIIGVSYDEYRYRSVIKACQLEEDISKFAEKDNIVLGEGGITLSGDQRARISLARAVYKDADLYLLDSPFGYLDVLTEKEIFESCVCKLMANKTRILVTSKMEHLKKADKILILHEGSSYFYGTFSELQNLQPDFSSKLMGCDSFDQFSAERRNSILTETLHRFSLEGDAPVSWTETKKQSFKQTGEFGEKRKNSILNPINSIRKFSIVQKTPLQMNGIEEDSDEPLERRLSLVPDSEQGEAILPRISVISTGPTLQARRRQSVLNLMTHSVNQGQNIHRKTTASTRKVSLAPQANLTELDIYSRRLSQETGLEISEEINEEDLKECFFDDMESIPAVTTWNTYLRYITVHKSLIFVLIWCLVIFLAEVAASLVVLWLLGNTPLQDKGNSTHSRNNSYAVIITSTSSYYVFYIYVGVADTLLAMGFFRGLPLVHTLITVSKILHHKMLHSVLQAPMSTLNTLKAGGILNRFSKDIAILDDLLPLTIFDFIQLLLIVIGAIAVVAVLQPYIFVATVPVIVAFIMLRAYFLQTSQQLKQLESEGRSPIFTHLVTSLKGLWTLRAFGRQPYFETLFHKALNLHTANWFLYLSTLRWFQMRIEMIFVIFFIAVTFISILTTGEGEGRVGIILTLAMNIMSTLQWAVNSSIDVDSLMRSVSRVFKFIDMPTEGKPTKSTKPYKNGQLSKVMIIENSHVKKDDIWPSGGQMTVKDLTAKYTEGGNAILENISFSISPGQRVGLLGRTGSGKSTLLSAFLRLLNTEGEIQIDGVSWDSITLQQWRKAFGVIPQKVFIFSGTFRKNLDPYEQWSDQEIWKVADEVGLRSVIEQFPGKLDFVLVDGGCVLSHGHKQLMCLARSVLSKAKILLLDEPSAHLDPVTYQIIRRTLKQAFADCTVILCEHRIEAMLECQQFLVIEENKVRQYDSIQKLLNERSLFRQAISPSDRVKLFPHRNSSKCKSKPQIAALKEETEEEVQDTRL
T2 sequence (P13569 with tags, fused parts or gaps DEL508-508): as the sequence (P13569 whole entry F508del/G551D) above, with D550G counted along it
T3 sequence (P13569 with tags, fused parts or gaps DEL508-508): as the sequence (P13569 whole entry F508del/G551D) above, with D550G counted along it

Row | SMILES | EC50 [1] [µM] | EC50 [2] [µM] | EC50 [3] [µM] | frequency of pulmonary exacerbations (G551 D patients) | lung function, percent predicted FEV1 increased (G551 D patients) | weight (G551 D patients) | improvement on monotherapy [4]
1 | CC[C@H](c1cn(-c2ccc(F)cc2F)nn1)n1cc(-c2cnc(C(F)(F)F)nc2)c2c(N)ncnc21 (single isomer, unassigned) [Example 162] | 8.45 | 0.339 | 0.363 | – | – | – | –
2 | CCC(c1cn(-c2ccccc2F)nn1)n1cc(-c2cncnc2OC)c2c(N)ncnc21 (single isomer, unassigned; enantiomer 2) [Example 134, (+) 7-{1-[1-(2-Fluorophenyl)-1H-1,2,3-triazol-4-yl]propyl}-5-(4-methoxypyrimidin-5-yl)-7H-pyrrolo[2,3-d]pyrimidin-4-amine, enantiomer 2] | 0.826 | 0.0289 | 0.0134 | – | – | – | –
3 | CC(C)(C)c1cc(C(C)(C)C)c(NC(=O)c2c[nH]c3ccccc3c2=O)cc1O [Kalydeco, ivacaftor] | – | – | – | reduced the frequency of pulmonary exacerbations | 10-13% | allowed weight gain | did not lead to any appreciable improvement
4 | CCC(c1cn(-c2cc(F)ccc2F)nn1)n1cc(-c2cc(F)cnc2OC)c2c(N)ncnc21 (single isomer, unassigned; enantiomer 2) [Example 172, 7-{1-[1-(2,5-Difluorophenyl)-1H-1,2,3-triazol-4-yl]propyl}-5-(5-fluoro-2-methoxypyridin-3-yl)-7H-pyrrolo[2,3-d]pyrimidin-4-amine, enantiomer 2] | – | 0.0776 | 0.203 | – | – | – | –
5 | CC(c1cn(-c2ccccc2F)nn1)n1cc(C2CC2)c2c(N)ncnc21 (single isomer, unassigned) [Example 109, 5-Cyclopropyl-7-{1-[1-(2-fluorophenyl)-1H-1,2,3-triazol-4-yl]ethyl}-7H-pyrrolo[2,3-d]pyrimidin-4-amine] | – | 0.0686 | 0.0365 | – | – | – | –

Now from value to molecule, other results behind:

Row | EC50 [1] [µM] | EC50 [2] [µM] | EC50 [3] [µM] | SMILES | frequency of pulmonary exacerbations (G551 D patients) | lung function, percent predicted FEV1 increased (G551 D patients) | weight (G551 D patients) | improvement on monotherapy [4]
6 | 0.303 | 0.0109 | 0.0086 | CC[C@@H](c1cn(-c2ccc(F)cc2F)nn1)n1cc(-c2cnc(C(F)(F)F)nc2)c2c(N)ncnc21 (single isomer, unassigned) [Example 161] | – | – | – | –
7 | – | 0.013 | 0.0132 | CCC(c1cn(-c2cccc(F)c2F)nn1)n1cc(-c2cnc(C(F)(F)F)nc2)c2c(N)ncnc21 (single isomer, unassigned) [Example 187, 7-{1-[1-(2,3-Difluorophenyl)-1H-1,2,3-triazol-4-yl]propyl}-5-[2-(trifluoromethyl)pyrimidin-5-yl]-7H-pyrrolo[2,3-d]pyrimidin-4-amine] | – | – | – | –
8 | – | 0.0277 | 0.0122 | COc1nc(C(F)(F)F)ncc1-c1cn(C(C)c2cn(-c3ccccc3F)nn2)c2ncnc(N)c12 (stereo not drawn) [Example 249, 7-{1-[1-(2-Fluorophenyl)-1H-1,2,3-triazol-4-yl]ethyl}-5-[4-methoxy-2-(trifluoromethyl)pyrimidin-5-yl]-7H-pyrrolo[2,3-d]pyrimidin-4-amine] | – | – | – | –
